Data taken from patent US20230095695A1, “RNAS FOR COMPLEMENT INHIBITION” (Apellis Pharmaceuticals, Inc., priority 2020, published 2023).
Oligonucleotides are written 5' to 3', each unit as a sugar letter and its base; * is a phosphorothioate linkage, no mark a phosphodiester; rarer units and linkages stand in square brackets, end groups in braces. Plain capitals give the bases only. {GalNAc-NHC6} = GalNAc ligand attached through an NHC6 linker; m = 2'-O-methyl; f = 2'-fluoro

Tests used:
Assay type in all cases: in vivo, Sprague-Dawley rats
C3 protein = assay: Plasma C3 protein (ELISA) in rats after SC administration
Procedure: (§1) Dosing: Animals from groups 1-3 and 8 were dosed with a single subcutaneous injection of PBS vehicle or 3, 10 or 30 mg/kg siRNA 59, formulated at a concentration of 0.6, 2 and 6 mg/ml in PBS, respectively, in a dosing volume of 5 ml. Animals from groups 4-7 were dosed with 3× daily subcutaneous injection of […] siRNA 59, formulated at a concentration of 0.2, 0.6 and 2 mg/ml in PBS, respectively, in a dosing volume of 5 ml.
(§2) Sampling: For PD analyses, plasma and serum samples were collected at baseline and days 3, 8, 15, 22 and 29 post-dose. Plasma samples were collected at 15 minutes and 1, 4, 8, 24, 48 and 72 hours post-dose. Liver samples were collected at necropsy on days 3 and 30 post-dose.
Bioanalytical Methods: Plasma PD samples were analyzed for concentrations of C3 protein at Confluence Discovery Technologies (MO, USA) using a double antibody sandwich ELISA kit according to the manufacturer's instructions (Eagle Biosciences; plasma dilution of 1:10,000).

alternative pathway = assay: Serum alternative pathway complement activation (AP Wieslab assay, C5b-9) in rats
Procedure: as §1, §2
Serum PD samples were analyzed for alternative pathway (AP) complement activation at Confluence Discovery Technologies (MO, USA) using the AP Wieslab assay (Eagle Biosciences, Cat #COMPL AP330).
Alternative pathway complement activity: Sera from each animal treated with single dose siRNA 59 and vehicle, as well as the multi-dose siRNA (−) control-treated animals, were used in the AP Wieslab assay, an ELISA-based assay that measures formation of C5b-9 following alternative pathway activation, to assess complement activation (FIG. 8). […] Data represents mean±SEM (n=3). Serum AP complement activity was highly variable across the control groups.

C3 mRNA = assay: Liver C3 mRNA (RT-qPCR) in rats; conditions: for mean C3 expression in liver, % of gene expression in the vehicle treated arm: 30 mg/kg
Procedure: as §1, §2
PD tissue samples were analyzed for C3 mRNA levels using a semi-validated RT-qPCR method at EpigenDx (MA, USA).

[1] = Tolerability observations in rats
Procedure: as §1

[2] = SC 3, 10, 30 mg/kg, single or 3x daily

siRNA 59: siRNA 33 further modified; sense SEQ ID NO: 326 / antisense SEQ ID NO: 260; GalNAc conjugated via NHC6 linker at 5′ end of sense strand (sense {GalNAc-NHC6}-mU*mC*fCmAmAmGfCfCfUmUmGfGmCmUmCmAfA*mU*mA; antisense mU*fA*mUmUmGmAmGmCmCmAmAmGmGfCmUmUmGmGmA*mA*mC) [siRNA 33 further modified; GalNAc conjugated via NHC6 linker at 5′ end of sense strand]
recovery of plasma C3 protein to baseline levels (C3 protein; 3 mg/kg dose group, day 29): Full recovery | reduction in C3 plasma protein concentration (C3 protein; 10 mg/kg dose): ~90% | plasma C3 concentration, single dose treatment vs QDx3 equivalent dose groups (C3 protein; 3, 10, 30 mg/kg total dose): comparable | recovery of plasma C3 protein to baseline levels (C3 protein; 10 and 30 mg/kg dose groups, final blood collection on day 29): did not appear to have fully recovered | change in plasma C3 concentration across the dose groups (C3 protein; [2]): clear dose-dependent response | time at which maximal C3 protein reduction in plasma was achieved (C3 protein; all dose groups): ≤ 8 study day | change in AP Wieslab activity (alternative pathway; dose groups other than high-dose (3 and 10 mg/kg)): No change | mean reduction in alternative pathway activity (alternative pathway; high dose group (30 mg/kg single SC), day 8 to day 15 post-dose): approximately 90% | mean C3 expression in liver, % of gene expression in the vehicle treated arm (C3 mRNA; day 3): 3% | mean C3 expression in liver, % of gene expression in the vehicle treated arm (C3 mRNA; day 30): 25% | recovery of liver C3 expression (C3 mRNA; all treatment animals, study termination at day 30): None of the treatment animals had fully recovered | reduction in C3 mRNA in liver across doses (C3 mRNA; both terminal timepoints (day 3 and day 30)): dose-dependent manner | level of liver C3 mRNA vs vehicle control (C3 mRNA; single dose PK animal groups, 3 days following treatment): significantly reduced | tolerability of the doses used [1, 2]: well-tolerated | body weight following TA administration ([1]; all treatment groups): no loss in body weight | signs of distress or behavioral changes ([1]; all treatment groups): No signs of distress or behavioral changes
